Source: patent publication US8530507B2, “Use of levo-ornidazole in the preparation of anti-anaerobic bacteria infection drugs” (priority 2005, dated 2013)
≈ marks a conversion by molar mass, not a printed value.

Key:
mice [1] = test: Effects on spontaneous activities in mice; format: in vivo; settings: for spontaneous activity compared with the vehicle control group: recorded at 0.5, 1, 2, 3 and 4 hours
Experimental: Chlorpromazine was administered at dose of […] in the positive control group, and the same volume of propylene glycol containing 0.9% sodium chloride injection was administered in the vehicle control group. Spontaneous activity was recorded at 0.5, 1, 2, 3 and 4 hours after drug administration. The injection volume was 0.2 ml/10 g and the administration rate was 0.2 ml/10 sec.

mice [2] = test: Effect on the hypnotic effect induced by sodium thiopental in mice; settings: 40 mg/kg sodium thiopental i.p. 30 minutes later
Experimental: The same volume of 0.9% sodium chloride injection containing propylene glycol was administered in the vehicle control group. 30 minute after drug administration, 40 mg/kg of sodium thiopental was administered to mice by intraperitoneal injection. The time for the loss of righting reflex and the time for the recovery were recorded. The injection volume was 0.2 ml/10 g, the administration rate was 0.2 ml/10 sec.

[3] = In vivo pharmacokinetics in Beagle dogs
Experimental: The clinical dose of ornidazole is 500 mg for human. By calculating, based on body surface area, the pharmacokinetic experimental dose in Beagle dogs was 13 mg/kg in vivo. Six adult beagle dogs (half males and half females, body weight of 9˜11.5 kg) were randomly divided into three groups. According to crossover design, intravenous injection of L-, D-, and racemic ornidazole were administered in turn to each dog every other week (with one week washout period in between). 2 ml of blood was collected from the vein located at the forelimb of the dogs before drug administration and 0.083, 0.5, 1.0, 2.0, 4.0, 6.0, 8.0, 12.0, 16.0, 24.0 hours after drug administration, which was then placed in the heparinized tube, followed by centrifugation to obtain the plasma. Plasma concentration of drug was determined by HPLC. Pharmacokinetics parameters were estimated using the non-compartmental models. The corresponding pharmacokinetics parameters were obtained by BAPP2.0 using the data of plasma concentration of blood with time obtained above.

Peptostreptococcus = test: In vitro MIC determination, clinical anaerobic strains; format: cell-based; settings: 35 clinical strains, GAM broth, 72 hours anaerobic incubation at 35° C.
Experimental: (§1) Experimental strains: isolated from clinical specimens, and species identification were conducted.
(§2) Bacilli preparation: 4˜5 bacteria colonies with same pattern selected from anaerobic GAM plate were inoculated in GAM broth with inoculating loop. The bacteria was incubated at 35° C. under anaerobic condition until a slight turbidity was attained, and adjusted by means of sterilized saline (deoxygenated) so as to attain a turbidity equivalent to the No. 0.5 McFarland turbidity tube, then diluted with GAM broth (at 1:200) for later use.
(§3) MIC (Minimum Inhibitory Concentration) determination: the testing drugs and control drugs were diluted with GAM broth to different concentrations in the test tubes, followed by addition of equal volume of diluted Bacilli (at 1:200), MIC values were read 72 hours after anaerobic incubation at 35° C.

Clostridium = test: as above; format: cell-based; settings: 6 clinical strains, GAM broth, 72 hours anaerobic incubation at 35° C.
Experimental: as §1, §2, §3

Veillonella = test: as above; format: cell-based; settings: 23 clinical strains, GAM broth, 72 hours anaerobic incubation at 35° C.
Experimental: as §1, §2, §3

Fusobacterium nucleatum = test: as above; format: cell-based; settings: 11 clinical strains, GAM broth, 72 hours anaerobic incubation at 35° C.
Experimental: as §1, §2, §3

Bacteroides = test: as above; format: cell-based; settings: 40 clinical strains, GAM broth, 72 hours anaerobic incubation at 35° C.
Experimental: as §1, §2, §3

Kunming mice = test: Acute toxicology test, LD50 in mice (Bliss method); format: in vivo; settings: for LD50: observed 14 days; for Number of dead animals: 10 animals
Experimental: Kunming mice, half males and half females, with body weights of 18˜22 g, were administered the testing drug solution by injection 8 hours after fasting. The death status of animals was consecutively observed for 14 days after administration.

Beagle dogs = settings: dog, in vivo, iv, 200 mg/kg
Text: 2. Toxicity Test in Beagle Dogs (Non-Rodent) After Intravenous Administration of L-ornidazole for Two Weeks
Beagle dogs, 4 dogs in each group with half females and half males, were divided into L-, D-, and racemic ornidazole groups.

mice [4] = test: Hypnotic effect of intravenous injection in mice (righting reflex); format: in vivo; settings: mice, within 30 minutes
Experimental: White mice, half males and half females, fasted for eight hours. The disappearance of righting reflex in mice was observed. The number of animals who lost their righting reflex was recorded in 30 minutes after drug administration.

[5] = beagle dogs, individual intravenous dose 13 mg/kg, plasma

Structure (SMILES): Cc1ncc([N+](=O)[O-])n1C[C@H](O)CCl [L-ornidazole, 1-(3-chloro-2-S-(−)-hydroxypropyl)-2-methyl-5-nitroimidazole]
- spontaneous activity compared with the vehicle control group (mice [1]; 40 mg/kg intravenous): significant reduction in spontaneous activity was not observed
- recovery of spontaneous activity (mice [1]; 80 mg/kg intravenous): gradually become normal after 2 hours
- spontaneous activity compared with the vehicle control group (mice [1]; 80 mg/kg intravenous): reduced significantly at 0.5 and 1 hour
- recovery of spontaneous activity (mice [1]; 160 mg/kg intravenous): gradually become normal after 3 hours
- spontaneous activity compared with the vehicle control group (mice [1]; 160 mg/kg intravenous): reduced significantly at 0.5, 1 and 2 hours
- duration of sleeping induced by sodium thiopental, compared with the vehicle control group (mice [2]; 40 mg/kg intravenous): did not significantly extend
- sleep latency induced by sodium thiopental, compared with the vehicle control group (mice [2]; 40 mg/kg intravenous): no significant reduction
- duration of sleeping induced by sodium thiopental, compared with the vehicle control group (mice [2]; 80 mg/kg intravenous): significantly extended
- sleep latency induced by sodium thiopental, compared with the vehicle control group (mice [2]; 80 mg/kg intravenous): no significant reduction
- AUC0-t (area under curve) [3, 5]: 90940 ± 8330 ng·h/mL
- Cl (clearance) [3, 5]: 1.22 ± 0.13 L/h
- MRT (mean retention time of drugs) [3, 5]: 10.06 ± 1.57 h
- Vβ (elimination volume of distribution) [3, 5]: 12.23 ± 1.84 L
- t1/2 (half life) ([3]; beagle dogs, individual intravenous dose 13 mg/kg, plasma, HPLC, non-compartmental): 6.97 ± 1.09 h
- in vivo transformation of enantiomers between L- and D-ornidazole ([3]; dog, in vivo, iv): not occurred
- MIC50 (Peptostreptococcus): 4.0 µg/mL (≈ 18.2 µM)
- MIC90 (Peptostreptococcus): 8.0 µg/mL (≈ 36.4 µM)
- MIC Range (Peptostreptococcus): 2.0~32.0 mg/L
- MIC50 (Clostridium): 2.0 µg/mL (≈ 9.11 µM)
- MIC90 (Clostridium): 2.0 µg/mL (≈ 9.11 µM)
- MIC Range (Clostridium): 1.0~2.0 mg/L
- MIC50 (Veillonella): 4.0 µg/mL (≈ 18.2 µM)
- MIC90 (Veillonella): 8.0 µg/mL (≈ 36.4 µM)
- MIC Range (Veillonella): 2.0~8.0 mg/L
- MIC50 (Fusobacterium nucleatum): 2.0 µg/mL (≈ 9.11 µM)
- MIC90 (Fusobacterium nucleatum): 16.0 µg/mL (≈ 72.9 µM)
- MIC Range (Fusobacterium nucleatum): 1.0~16.0 mg/L
- MIC50 (Bacteroides): 4.0 µg/mL (≈ 18.2 µM)
- MIC90 (Bacteroides): 8.0 µg/mL (≈ 36.4 µM)
- MIC Range (Bacteroides): 20~16.0 mg/L
- LD50 (Kunming mice; intraperitoneal injection): 1378 mg/kg
- Death rate (Kunming mice; intraperitoneal, 1044 mg/kg): 0%
- Probability units (Y) (Kunming mice; intraperitoneal, 1044 mg/kg): 3.27
- Number of dead animals (Kunming mice; intraperitoneal, 1044 mg/kg): 0
- Death rate (Kunming mice; intraperitoneal, 1228 mg/kg): 30%
- Probability units (Y) (Kunming mice; intraperitoneal, 1228 mg/kg): 4.24
- Number of dead animals (Kunming mice; intraperitoneal, 1228 mg/kg): 3
- Death rate (Kunming mice; intraperitoneal, 1445 mg/kg): 60%
- Probability units (Y) (Kunming mice; intraperitoneal, 1445 mg/kg): 5.20
- Number of dead animals (Kunming mice; intraperitoneal, 1445 mg/kg): 6
- Death rate (Kunming mice; intraperitoneal, 1700 mg/kg): 90%
- Probability units (Y) (Kunming mice; intraperitoneal, 1700 mg/kg): 6.17
- Number of dead animals (Kunming mice; intraperitoneal, 1700 mg/kg): 9
- Death rate (Kunming mice; intraperitoneal, 2000 mg/kg): 100%
- Probability units (Y) (Kunming mice; intraperitoneal, 2000 mg/kg): 7.13
- Number of dead animals (Kunming mice; intraperitoneal, 2000 mg/kg): 10
- LD50 (Kunming mice; intravenous injection): 332 mg/kg
- Death rate (Kunming mice; intravenous, 243 mg/kg): 0%
- Probability units (Y) (Kunming mice; intravenous, 243 mg/kg): 1.06
- Number of dead animals (Kunming mice; intravenous, 243 mg/kg): 0
- Death rate (Kunming mice; intravenous, 270 mg/kg): 0%
- Probability units (Y) (Kunming mice; intravenous, 270 mg/kg): 3.04
- Number of dead animals (Kunming mice; intravenous, 270 mg/kg): 0
- Death rate (Kunming mice; intravenous, 300 mg/kg): 20%
- Probability units (Y) (Kunming mice; intravenous, 300 mg/kg): 3.72
- Number of dead animals (Kunming mice; intravenous, 300 mg/kg): 2
- Death rate (Kunming mice; intravenous, 333 mg/kg): 30%
- Probability units (Y) (Kunming mice; intravenous, 333 mg/kg): 5.05
- Number of dead animals (Kunming mice; intravenous, 333 mg/kg): 3
- Death rate (Kunming mice; intravenous, 370 mg/kg): 100%
- Probability units (Y) (Kunming mice; intravenous, 370 mg/kg): 6.38
- Number of dead animals (Kunming mice; intravenous, 370 mg/kg): 10
- Death rate (Kunming mice; oral gavage, 655.4 mg/kg): 0%
- Probability units (Y) (Kunming mice; oral gavage, 655.4 mg/kg): 2.87
- Death rate (Kunming mice; oral gavage, 819.2 mg/kg): 10%
- Probability units (Y) (Kunming mice; oral gavage, 819.2 mg/kg): 3.86
- Death rate (Kunming mice; oral gavage, 1024 mg/kg): 40%
- Probability units (Y) (Kunming mice; oral gavage, 1024 mg/kg): 4.86
- Probability units (Y) (Kunming mice; oral gavage, 1280 mg/kg): 5.86
- Death rate (Kunming mice; oral gavage, 1600 mg/kg): 100%
- Number of dead animals (Kunming mice; oral gavage, 1600 mg/kg): 10
- LD50 (Kunming mice; oral gavage): 1069 mg/kg
- food intake and body weight (Beagle dogs): Food intake of testing animals was inhibited while body weight of the testing animals was inhibited to a certain extent
- histological examination of organs (Beagle dogs): Significant pathological changes were not found
- manifestations (toxicity and side effects) (Beagle dogs): merely drooling, vomiting, involuntary urination and the like
- recovery time of manifestations (Beagle dogs): 1 to 2 h
- toxic effects (Beagle dogs): significant toxic effects were not observed
- number of mice with loss in righting reflex (mice [4]; individual dose of 160 mg/kg intravenous): No loss in righting reflex
- loss in righting reflex (mice [4]; individual dose of 40 or 80 mg/kg intravenous): No loss in righting reflex
